In patent US20080249130A1, “Gut microsomal triglyceride transport protein inhibitors” (Sirtris Pharmaceuticals, Inc., priority 2007, published 2008):

Tested on: secretion of ApoB by HepG2 cells
Test: ApoB secretion inhibition assay in HepG2 cells (ApoB ELISA)
Assay type: cell-based, human
Conditions: Homo sapiens, HepG2, Table 6, assay of Example 2; read-out: IC50 ApoB Assay
Procedure: The ability of the compounds of the present invention to inhibit the secretion of ApoB can be determined using the following cell-based assay, which measures the secretion of ApoB by HepG2 cells. ApoB has two possible metabolic fates: entrance into the lipoprotein assembly pathway within the lumen of the endoplasmic reticulum (ER), or degradation in the cytoplasm by the ubiquitin-dependent proteasome. The destiny of ApoB is determined by the relative availability of individual lipids, which is controlled by MTP (Davis, Biochim. Biophys. Acta, 1999, 1440, 1-31).
HepG2 cells (ATCC, HB-8065) are seeded in 96-well plates in DMEM with 10% FBS+pen/strep at a density of 1×10^5 cells/well (100 μl /well). Twenty-four hours after seeding, the plate is aspirated and the media changed to DMEM with 1% BSA and pen/strep, and the cells are serum-starved for 24 hours. After 24 hour serum-starvation, the plate is aspirated again and the cells are then treated for 24 hours with or without compound in DMEM with 1% BSA, 0.3 mM OA (OA complexed to BSA at a 2:1 ratio) and pen/strep. The final concentration of DMSO in the assay (from compound and control) is 0.1%. After 24 hour treatment, conditioned media is collected in an empty 96-well plate.
Cellular viability is measured using the cell permeable dye, AlamarBlue™. This dye undergoes electron reduction in viable cells but not dead cells. The reduced dye product gives a fluorescent signal which can be monitored with a fluorescence plate reader (excitation 545 nm and emission 575 nm). The amount of fluorescence generated in a given well is proportional to the number of viable cells. After collection, the 96-well plate is re-fed with 100 μl media (DMEM with 10% FBS) and 10 μl Alamar Blue™ per well, incubated for 2 hours and then read in a fluorescence plate reader.
ApoB secretion from HepG2 cells is quantitated by testing the conditioned media at […] using an ApoB ELISA kit (ALerCHEK) according to the manufacturer's instructions. The ELISA assay for ApoB is performed as follows: a polyclonal antibody against human ApoB (Chemicon) is diluted 1:1000 in carbonate-bicarbonate buffer and 100 μl are added to each well of a 96-well plate (NUNC). After 5 hours incubation at room temperature, the antibody solution is removed and wells are washed four times with PBS/0.05% TweenD 20 (Cayman Chemical Co.). Non-specific sites on the plastic plate are blocked by incubating wells for 1 to 1.5 hours in a solution of 0.5% BSA and 0.1% TweenD 20 made in PBS. One hundred microliters of a 1:20 dilution of growth medium from the HepG2 cells (made in 0.004% TweenD 20/1% BSA in PBS) is added to each well and incubated for 3 hours at room temperature. Wells are aspirated and washed four times (0.05% TweenD 20 in PBS) prior to adding 100 μl of a 1:1000 dilution (5 μg/ml) of the secondary antibody, mouse anti-human ApoB (Chemicon). After 2 hours incubation at room temperature, this solution is aspirated and the wells are again washed 4 times as above. One hundred microliters of peroxidase-conjugated affinity purified goat anti-mouse IgG (H+L) (Jackson ImmunoResearch Laboratories) (1:10,000 dilution in PBS/1% BSA/0.1% TweenD 20) is then added to each well and incubated for 1 hour at room temperature. After aspirating, the wells are washed 4 times as above and 50 μl of 1-step Ultra TMB ELISA reagent (Pierce) is added to each well and incubated for 5 minutes. The reaction is stopped by the addition of 50 μl of 2 NH2SO4 and absorbance of each well is read at 450 nm.

Row | IC50 | SMILES
1 | 4 nM | CC(C)(C)c1ccc(-c2ccccc2C(=O)Nc2ccc3nc(C(=O)N[C@H](C(=O)NCc4ccccc4)c4ccccc4)sc3c2)cc1 [Compound 6]
2 | 2700 nM | CC(C)(C)c1ccc(-c2ccccc2C(=O)Nc2ccc3nc(C(=O)O)sc3c2)cc1 [Compound 18]
3 | > 10000 nM | CN(Cc1ccc(F)cc1)C(=O)[C@@H](NC(=O)c1nc2ccc(N)cc2s1)c1ccccc1 [Compound 19]
4 | 190 nM | CC(C)(C)c1ccc(-c2ccccc2C(=O)NCC23CCC(C(=O)N[C@H](C(=O)N4CCC(F)(F)C4)c4ccccc4)(CC2)CC3)cc1 [Compound 21]
5 | 21.6 nM | CC(C)(C)c1ccc(-c2ccccc2C(=O)Nc2ccc3nc(C(=O)N[C@H](C(=O)N4Cc5ccccc5C4)c4ccccc4)sc3c2)cc1 [Compound 23]
6 | 4200 nM | CN(Cc1ccc(F)cc1)C(=O)[C@@H](NC(=O)c1nc2ccc(NC(=O)c3ccccc3-n3cnnn3)cc2s1)c1ccccc1 [Compound 29]
7 | 9.8 nM | CN(Cc1ccc(F)cc1)C(=O)[C@H](NC(=O)c1nc2ccc(NC(=O)c3ccccc3-c3ccc(C(C)(C)C)cc3)cc2s1)c1ccccc1 [Compound 35]
8 | 35.3 nM | CN(Cc1ccc(F)cc1)C(=O)[C@@H](NC(=O)c1ccc(-c2csc(NC(=O)c3ccccc3-c3ccc(C(C)(C)C)cc3)n2)cc1)c1ccccc1 [Compound 37]
9 | 105 nM | O=C(N[C@H](C(=O)N1CCCC1)c1ccccc1)c1nc2ccc(NC(=O)c3ccccc3-c3cn4ccsc4n3)cc2s1 [Compound 43]
10 | 60.3 nM | CC(C)(C)c1ccc(-c2ccccc2C(=O)NCC23CCC(C(=O)N[C@H](C(=O)NCC4CC4)c4ccccc4)(CC2)CC3)cc1 [Compound 49]
11 | 872 nM | CN(C(=O)[C@@H](NC(=O)c1nc2ccc(NC(=O)c3ccccc3-c3cn4ccsc4n3)cc2s1)c1ccccc1)C1CCCC1 [Compound 51]
12 | 4180 nM | CN(C(=O)[C@@H](NC(=O)c1nc2ccc(NC(=O)c3ccccc3-c3cn4ccsc4n3)cc2s1)c1ccccc1)C(C)(C)C [Compound 53]
13 | 272 nM | CC(C)(C)c1ccc(-c2ccccc2C(=O)Nc2ccc(-c3csc(C(=O)N[C@H](C(=O)N4CCCC4)c4ccccc4)n3)cc2)cc1 [Compound 57, (S)-4-(4-(4′-tert-butylbiphenyl-2-ylcarboxamido)phenyl)-N-(2-oxo-1-phenyl-2-(pyrrolidin-1-yl)ethyl)thiazole-2-carboxamide]
14 | 2100 nM | CN(C(=O)[C@@H](NC(=O)c1nc2ccc(NC(=O)c3ccccc3-c3cn4ccsc4n3)cc2s1)c1ccccc1)C1CCCCC1 [Compound 61]

More lines, now with the values behind:

Row | SMILES | IC50
15 | CCCCCNC(=O)[C@@H](NC(=O)c1cccc(-c2csc(NC(=O)c3ccccc3-c3ccc(C(C)(C)C)cc3)n2)c1)c1ccccc1 [Compound 11] | 296 nM
16 | CN(Cc1ccc(F)cc1)C(=O)[C@@H](NC(=O)c1cccc(-c2csc(NC(=O)c3ccccc3-c3ccc(C(C)(C)C)cc3)n2)c1)c1ccccc1 [Compound 13] | 238 nM
17 | CCCCCNC(=O)[C@@H](NC(=O)c1ccccc1-c1csc(NC(=O)c2ccccc2-c2ccc(C(C)(C)C)cc2)n1)c1ccccc1 [Compound 15] | > 10000 nM
18 | CC(C)(C)c1ccc(-c2ccccc2C(=O)Nc2nc(-c3ccccc3C(=O)N[C@H](C(=O)N3CCCC3)c3ccccc3)cs2)cc1 [Compound 16, (S)-4′-tert-butyl-N-(4-(2-(2-oxo-1-phenyl-2-(pyrrolidin-1-yl)ethylcarbamoyl)phenyl)thiazol-2-yl)biphenyl-2-carboxamide] | 1100 nM
19 | CN(Cc1ccc(F)cc1)C(=O)[C@@H](NC(=O)c1ccccc1-c1csc(NC(=O)c2ccccc2-c2ccc(C(C)(C)C)cc2)n1)c1ccccc1 [Compound 17] | > 10000 nM
20 | CC(C)(C)c1ccc(-c2ccccc2C(=O)NCC23CCC(C(=O)N[C@H](C(=O)N4CCCC4)c4ccccc4)(CC2)CC3)cc1 [Compound 20] | 95 nM
21 | CC(C)(C)c1ccc(-c2ccccc2C(=O)NCC23CCC(C(=O)N[C@H](C(=O)N4Cc5ccccc5C4)c4ccccc4)(CC2)CC3)cc1 [Compound 22] | 253 nM
22 | Cc1noc(-c2ccccc2C(=O)Nc2ccc3nc(C(=O)N[C@H](C(=O)N(C)Cc4ccc(F)cc4)c4ccccc4)sc3c2)n1 [Compound 25] | 59.4 nM
23 | CC(C)(C)c1ccc(-c2ccccc2C(=O)Nc2nc(-c3cccc(C(=O)N[C@H](C(=O)N4CCC(F)(F)C4)c4ccccc4)c3)cs2)cc1 [Compound 26] | 77.2 nM
24 | CC(C)(C)c1ccc(-c2ccccc2C(=O)Nc2nc(-c3cccc(C(=O)N[C@H](C(=O)N4Cc5ccccc5C4)c4ccccc4)c3)cs2)cc1 [Compound 27] | 318 nM
25 | CN(Cc1ccc(F)cc1)C(=O)[C@@H](NC(=O)c1nc2ccc(NC(=O)c3ccccc3-c3cccnc3)cc2s1)c1ccccc1 [Compound 28] | 158 nM
26 | CN(Cc1ccc(F)cc1)C(=O)[C@@H](NC(=O)c1nc2ccc(NC(=O)c3ccccc3-n3cccn3)cc2s1)c1ccccc1 [Compound 31] | 93.1 nM
27 | CC(C)(C)c1ccc(-c2ccccc2C(=O)Nc2ccc3nc(C(=O)N[C@@H](C(=O)N4CCCC4)c4ccccc4)sc3c2)cc1 [Compound 34] | 34.8 nM
28 | CN(Cc1ccc(F)cc1)C(=O)[C@@H](NC(=O)c1nc2ccc(NC(=O)c3ccccc3-c3nc4ccccc4[nH]3)cc2s1)c1ccccc1 [Compound 39] | 256 nM
29 | O=C(N[C@H](C(=O)N1CCCCC1)c1ccccc1)c1nc2ccc(NC(=O)c3ccccc3-c3cn4ccsc4n3)cc2s1 [Compound 44] | 1610 nM
30 | CC(C)(C)c1ccc(-c2ccccc2C(=O)NCC23CCC(C(=O)N[C@H](C(=O)N4CCCCC4)c4ccccc4)(CC2)CC3)cc1 [Compound 45] | 98.2 nM
31 | CC(C)(C)c1ccc(-c2ccccc2C(=O)NCC23CCC(C(=O)N[C@H](C(=O)NC4CCCC4)c4ccccc4)(CC2)CC3)cc1 [Compound 46] | 151 nM
32 | CN(C(=O)[C@@H](NC(=O)C12CCC(CNC(=O)c3ccccc3-c3ccc(C(C)(C)C)cc3)(CC1)CC2)c1ccccc1)C1CCCC1 [Compound 47] | 78.8 nM
33 | CC(C)(C)c1ccc(-c2ccccc2C(=O)NCC23CCC(C(=O)N[C@H](C(=O)NC4CCCCC4)c4ccccc4)(CC2)CC3)cc1 [Compound 48] | 230 nM
34 | CC(C)(C)NC(=O)[C@@H](NC(=O)C12CCC(CNC(=O)c3ccccc3-c3ccc(C(C)(C)C)cc3)(CC1)CC2)c1ccccc1 [Compound 50] | 165 nM
35 | CC(C)(C)NC(=O)[C@@H](NC(=O)c1nc2ccc(NC(=O)c3ccccc3-c3cn4ccsc4n3)cc2s1)c1ccccc1 [Compound 52] | 248 nM
36 | CN(Cc1ccc(F)cc1)C(=O)[C@@H](NC(=O)c1nc(-c2ccc(NC(=O)c3ccccc3-c3ccc(C(C)(C)C)cc3)cc2)cs1)c1ccccc1 [Compound 56, (S)-4-(4-(4′-tert-butylbiphenyl-2-ylcarboxamido)phenyl)-N-(2-((4-fluorobenzyl)(methyl)amino)-2-oxo-1-phenylethyl)thiazole-2-carboxamide] | 846 nM
37 | CN(C(=O)[C@@H](NC(=O)C12CCC(CNC(=O)c3ccccc3-c3ccc(C(C)(C)C)cc3)(CC1)CC2)c1ccccc1)C1CCCCC1 [Compound 58] | 300 nM
38 | O=C(N[C@H](C(=O)NCC1CC1)c1ccccc1)c1nc2ccc(NC(=O)c3ccccc3-c3cn4ccsc4n3)cc2s1 [Compound 62] | 286 nM
39 | O=C(N[C@H](C(=O)NC1CCCCC1)c1ccccc1)c1nc2ccc(NC(=O)c3ccccc3-c3cn4ccsc4n3)cc2s1 [Compound 63] | 82 nM
